The results in this text go back to US12371428B2 (Exelixis, Inc., priority 2019, dated 2025).

Experiment [1] has as its target Mer (phospho-Mer, MERTK-transfected 293A cells) (Homo sapiens (Human), UniProt Q12866). Nature of the experiment: Mer autophosphorylation ELISA in transient transfected 293A cells (Example H). The experiment is classed as cell-based. The settings on record: cellular activity; Mer autophosphorylation ELISA in transient transfected 293A cells. A digest of the protocol:
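Human MERTK transiently transfected into 293A cells; compounds as 8-point dose curve in serum-free medium (0.3% DMSO final), 1 h. Lysates assayed by phospho-Mer sandwich ELISA against phospho-Mer standard; DMSO = 100%, reference inhibitor = 0% activity; IC50 from 4-parameter logistic fit.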
A general note: An ELISA detects its analyte on a solid surface through an enzyme-linked reagent.

Experiment [2] has as its target Met (phospho-Met, HGF-stimulated PC-3 prostate cancer cells) (Homo sapiens (Human), UniProt P08581). Nature of the experiment: Met autophosphorylation ELISA in PC-3 cells (Example F). The format is cell-based. To be noted: cellular activity; Met autophosphorylation ELISA in PC-3 cells; read-out: c-Met IC50. In short, it runs like this:
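PC-3 cells, serum-starved 3 h, were treated with compounds (8-point dose curve, 0.3% DMSO final) for 1 h, then stimulated with 100 ng/mL recombinant human HGF for 10 min. Lysate phospho-Met (panTyr) was quantified by sandwich ELISA; IC50 from 4-parameter logistic fit.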

By IC50 is commonly meant the concentration needed to halve the response being measured.

Bounds are passed on as bounds.

Sequence of Mer (phospho-Mer, MERTK-transfected 293A cells) (Q12866 21-999): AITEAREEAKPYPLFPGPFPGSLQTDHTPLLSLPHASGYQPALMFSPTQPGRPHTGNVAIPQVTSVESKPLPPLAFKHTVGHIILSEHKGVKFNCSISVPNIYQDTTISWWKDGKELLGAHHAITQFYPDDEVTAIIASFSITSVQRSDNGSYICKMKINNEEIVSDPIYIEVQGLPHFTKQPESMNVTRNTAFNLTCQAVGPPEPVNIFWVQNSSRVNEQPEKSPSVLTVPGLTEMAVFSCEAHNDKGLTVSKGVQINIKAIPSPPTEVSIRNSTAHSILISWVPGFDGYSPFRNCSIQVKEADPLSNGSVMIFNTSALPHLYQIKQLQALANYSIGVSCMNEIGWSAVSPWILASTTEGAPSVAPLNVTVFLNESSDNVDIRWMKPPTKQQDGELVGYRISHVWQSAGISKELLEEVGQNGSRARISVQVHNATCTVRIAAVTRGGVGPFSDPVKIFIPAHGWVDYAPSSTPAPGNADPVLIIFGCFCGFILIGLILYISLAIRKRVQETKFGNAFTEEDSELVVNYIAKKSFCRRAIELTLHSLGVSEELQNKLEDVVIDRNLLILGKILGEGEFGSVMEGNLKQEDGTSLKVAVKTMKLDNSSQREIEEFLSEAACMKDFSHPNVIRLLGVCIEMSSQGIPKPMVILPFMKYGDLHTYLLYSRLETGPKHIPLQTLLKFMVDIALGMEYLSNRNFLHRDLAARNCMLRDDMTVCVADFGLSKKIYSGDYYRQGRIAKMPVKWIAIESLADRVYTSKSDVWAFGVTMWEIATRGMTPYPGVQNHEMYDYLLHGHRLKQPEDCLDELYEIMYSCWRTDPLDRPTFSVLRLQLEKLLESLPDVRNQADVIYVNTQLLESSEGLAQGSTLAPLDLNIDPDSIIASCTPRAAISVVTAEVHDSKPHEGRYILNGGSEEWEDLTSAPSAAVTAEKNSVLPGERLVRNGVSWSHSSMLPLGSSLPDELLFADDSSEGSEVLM
Sequence of Met (phospho-Met, HGF-stimulated PC-3 prostate cancer cells) (P08581 25-1390): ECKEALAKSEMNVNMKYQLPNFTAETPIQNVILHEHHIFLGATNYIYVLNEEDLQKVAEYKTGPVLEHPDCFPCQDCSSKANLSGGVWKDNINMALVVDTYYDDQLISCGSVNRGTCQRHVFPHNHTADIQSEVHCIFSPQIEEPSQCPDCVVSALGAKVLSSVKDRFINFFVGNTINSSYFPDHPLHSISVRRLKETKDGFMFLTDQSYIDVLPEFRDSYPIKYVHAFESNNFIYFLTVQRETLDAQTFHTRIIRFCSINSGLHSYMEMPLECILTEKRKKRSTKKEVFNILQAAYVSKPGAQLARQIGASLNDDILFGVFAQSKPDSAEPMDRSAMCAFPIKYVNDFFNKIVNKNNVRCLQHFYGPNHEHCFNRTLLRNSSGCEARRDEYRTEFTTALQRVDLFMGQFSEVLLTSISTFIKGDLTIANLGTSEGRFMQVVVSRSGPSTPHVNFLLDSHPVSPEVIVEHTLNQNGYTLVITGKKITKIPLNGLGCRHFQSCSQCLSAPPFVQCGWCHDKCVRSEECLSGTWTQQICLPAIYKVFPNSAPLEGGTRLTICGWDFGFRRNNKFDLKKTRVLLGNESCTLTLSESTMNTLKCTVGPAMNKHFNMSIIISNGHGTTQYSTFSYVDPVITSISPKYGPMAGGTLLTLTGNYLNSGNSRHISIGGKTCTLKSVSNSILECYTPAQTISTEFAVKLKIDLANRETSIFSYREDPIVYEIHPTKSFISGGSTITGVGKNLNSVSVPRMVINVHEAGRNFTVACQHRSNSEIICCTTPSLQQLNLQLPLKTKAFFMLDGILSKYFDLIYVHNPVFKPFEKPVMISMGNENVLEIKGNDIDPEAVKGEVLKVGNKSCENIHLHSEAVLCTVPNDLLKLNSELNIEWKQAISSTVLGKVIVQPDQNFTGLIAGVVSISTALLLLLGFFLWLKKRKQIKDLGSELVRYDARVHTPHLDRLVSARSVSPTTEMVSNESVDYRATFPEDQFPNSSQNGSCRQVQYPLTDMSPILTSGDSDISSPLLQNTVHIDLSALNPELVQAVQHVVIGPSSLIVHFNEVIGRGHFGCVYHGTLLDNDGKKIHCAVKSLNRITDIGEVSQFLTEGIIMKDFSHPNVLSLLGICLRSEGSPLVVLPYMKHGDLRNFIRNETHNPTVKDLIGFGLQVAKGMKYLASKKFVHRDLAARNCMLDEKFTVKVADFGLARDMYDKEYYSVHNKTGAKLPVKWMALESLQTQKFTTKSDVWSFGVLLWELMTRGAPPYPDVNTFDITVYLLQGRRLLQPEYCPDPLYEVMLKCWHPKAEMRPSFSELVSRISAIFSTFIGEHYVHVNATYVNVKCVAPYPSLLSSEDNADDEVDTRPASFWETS

Regarding `COc1cc2nccc(Oc3ccc(NC(=O)c4c5n(cc(-c6ccc(F)cc6)c4=O)CCC5)cc3)c2nc1OC` [Compound 407, N-[4-[(6,7-dimethoxy-1,5-naphthyridin-4-yl)oxy]phenyl]-6-(4-fluorophenyl)-7-oxo-2,3-dihydro-1H-indolizine-8-carboxamide], the IC50 in experiment [1] and in experiment [2] was under 100 nM in each case.
With `COc1cnc2c(Oc3ccc(NC(=O)c4cnc(C)c(-c5c(C)cc(F)cc5C)c4O)cc3F)ccnc2c1` [Compound 417, 5-(4-fluoro-2,6-dimethylphenyl)-N-[3-fluoro-4-[(7-methoxy-1,5-naphthyridin-4-yl)oxy]phenyl]-4-hydroxy-6-methylpyridine-3-carboxamide], the figures for the half-inhibitory concentration (IC50) in experiment [1] and in experiment [2] were 100 to 300 nM and under 100 nM, respectively.
Taken in the same sequence, the figures for `CNC(=O)c1cc2c(Oc3ccc(NC(=O)c4c5n(cc(-c6ccc(F)cc6)c4=O)CCC5)cc3F)ccnc2cc1OC` [Compound 408, 4-[2-fluoro-4-[[6-(4-fluorophenyl)-7-oxo-2,3-dihydro-1H-indolizine-8-carbonyl]amino]phenoxy]-7-methoxy-N-methylquinoline-6-carboxamide] were under 100 nM and under 100 nM.
Taken in the same sequence, the figures for `COc1cc2nccc(Oc3ccc(NC(=O)c4cnc(CO)c(-c5ccc(F)cc5)c4O)cc3F)c2nc1OC` [Compound 71, N-[4-[(6,7-Dimethoxy-1,5-naphthyridin-4-yl)oxy]-3-fluorophenyl]-5-(4-fluorophenyl)-4-hydroxy-6-(hydroxymethyl)pyridine-3-carboxamide] were under 100 nM and under 100 nM.
Taken in the same sequence, the figures for `COc1ccc2nccc(Oc3ccc(NC(=O)c4cn(C5CC5)c(C)c(-c5ccc(F)cc5C)c4=O)cc3F)c2n1` [Compound 441, 1-cyclopropyl-N-[3-fluoro-4-[(6-methoxy-1,5-naphthyridin-4-yl)oxy]phenyl]-5-(4-fluoro-2-methylphenyl)-6-methyl-4-oxopyridine-3-carboxamide] were under 100 nM and under 100 nM.
For the compound `COc1cnc2c(Oc3ccc(NC(=O)c4cnc(C)c(-c5ccc(F)cc5)c4O)cc3F)ccnc2c1` [Compound 64, N-[3-Fluoro-4-[(7-methoxy-1,5-naphthyridin-4-yl)oxy]phenyl]-5-(4-fluorophenyl)-4-hydroxy-6-methylpyridine-3-carboxamide], the half-maximal inhibitory concentration (IC50) in experiment [1] and in experiment [2] was under 100 nM throughout.
As to `COc1cnc2c(Oc3ccc(NC(=O)c4ccc(C)n(-c5ccc(F)cc5)c4=O)cc3F)ccnc2c1` [Compound 83, N-[3-Fluoro-4-[(7-methoxy-1,5-naphthyridin-4-yl)oxy]phenyl]-1-(4-fluorophenyl)-6-methyl-2-oxopyridine-3-carboxamide], the concentration for half-maximal inhibition (IC50) in experiment [1] and in experiment [2] was under 100 nM throughout.
Regarding `COc1cc2nccc(Oc3ccc(NC(=O)c4cn(-c5cn[nH]c5)cc(-c5ccc(F)cc5)c4=O)cc3F)c2nc1OC` [Compound 62, N-[4-[(6,7-Dimethoxy-1,5-naphthyridin-4-yl)oxy]-3-fluorophenyl]-5-(4-fluorophenyl)-4-oxo-1-(1H-pyrazol-4-yl)pyridine-3-carboxamide], the IC50 in experiment [1] and in experiment [2] was under 100 nM in each case.
As to `COc1cc2nccc(Oc3ccc(NC(=O)c4cn(C5CC5)c(C)c(-c5ccc(F)cc5)c4=O)cc3)c2nc1OC` [Compound 434, 1-cyclopropyl-N-[4-[(6,7-dimethoxy-1,5-naphthyridin-4-yl)oxy]phenyl]-5-(4-fluorophenyl)-6-methyl-4-oxopyridine-3-carboxamide], the half-maximal inhibitory concentration (IC50) in experiment [1] and in experiment [2] was under 100 nM in each case.
